From EP1210344B1, “HETEROPOLYCYCLIC COMPOUNDS AND THEIR USE AS METABOTROPIC GLUTAMATE RECEPTOR ANTAGONISTS” (NPS PHARMACEUTICALS, INC., priority 1999, dated 2001)

Target: chimeric CaR/mGluR5d receptor (Homo sapiens, UniProt P41594)
Assay: CaR/mGluR5d Screening Assay (FLIPR, intracellular calcium)
Type: cell-based
Details: HEK 293 cells expressing the chimeric CaR/mGluR5d receptor, Fluo-3 fluorescence; read-out: IC50 value in relation to CaR/mGluR5d
Method: HEK 293 cells expressing the chimeric CaR/mGluR5d receptor (clonal cell line hCaR/hmGluR5d_hek6) are plated 24 hours prior to assay at a density of 100,000 cells per well in Collagen I-coated 96-well black, clear bottom plates (Becton Dickenson) in DMEM supplemented with 10% FBS (Hyclone).
On the day of the assay, tissue culture medium is aspirated from the wells of a plate and 80 µL of Assay Buffer (Assay Buffer is: 20 mM HEPES, 146 mM NaCl, 5 mM KCl, 1 mM MgCl2, 1 mM CaCl2, 1 mg/ml BSA, 1 mg/ml glucose, pH 7.4) supplemented with 6 µM of the Ca^2+-sensitive dye, Fluo-3 AM (Molecular Probes) and 0.025% Pluronic (Molecular Probes) is added to each well. The plate is then incubated in the dark for 1 hour at room temperature to efficiently load the cells with Fluo-3. At the end of the incubation, extracellular Fluo-3 is removed by washing the plate with Assay buffer. Assay Buffer is added back to each well (final volume = 160 µL) prior to beginning the assay.
The plate is loaded into a FLIPR robotic device (Molecular Devices) with the laser setting at 0.8 Watts. […] Relative fluorescence intensity (excitation λ = 488 nm / emission λ = 510 nM) is monitored at relevant time intervals throughout the assay period to measure receptor activation and/or inhibition.

chimeric CaR/mGluR5d receptor, sequence (P41594 580-876, change not shown): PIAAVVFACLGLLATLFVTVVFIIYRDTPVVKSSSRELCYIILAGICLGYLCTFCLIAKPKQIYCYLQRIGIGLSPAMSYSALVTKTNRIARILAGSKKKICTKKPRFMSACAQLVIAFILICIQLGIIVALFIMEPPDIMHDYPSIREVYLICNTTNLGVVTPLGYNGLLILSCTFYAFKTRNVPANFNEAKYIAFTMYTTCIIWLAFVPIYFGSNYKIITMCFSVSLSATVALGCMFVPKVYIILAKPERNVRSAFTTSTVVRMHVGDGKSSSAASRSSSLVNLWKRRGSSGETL
chimeric CaR/mGluR5d receptor, sequence (P41180 20-610 partner): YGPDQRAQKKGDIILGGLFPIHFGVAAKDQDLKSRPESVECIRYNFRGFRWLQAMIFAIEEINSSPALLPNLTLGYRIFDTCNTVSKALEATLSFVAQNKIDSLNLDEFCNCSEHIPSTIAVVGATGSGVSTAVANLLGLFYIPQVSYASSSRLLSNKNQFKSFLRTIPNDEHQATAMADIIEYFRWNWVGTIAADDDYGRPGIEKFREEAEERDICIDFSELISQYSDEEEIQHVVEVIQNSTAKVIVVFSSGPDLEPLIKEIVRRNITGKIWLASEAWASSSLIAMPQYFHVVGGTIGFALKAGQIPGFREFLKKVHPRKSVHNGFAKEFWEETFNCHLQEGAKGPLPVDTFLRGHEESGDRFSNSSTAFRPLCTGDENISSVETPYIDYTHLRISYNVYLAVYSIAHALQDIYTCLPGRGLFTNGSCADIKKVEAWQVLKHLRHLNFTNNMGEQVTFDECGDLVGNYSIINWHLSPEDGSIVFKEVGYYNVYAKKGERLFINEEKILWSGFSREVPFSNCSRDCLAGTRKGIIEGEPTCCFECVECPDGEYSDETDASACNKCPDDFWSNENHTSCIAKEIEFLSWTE

- IC50: 45 nM
Compound: N#Cc1cccc(-c2nc(-c3ccccn3)co2)c1 [B52, 2-[3-cyanophenyl]-4-[pyridin-2-yl]-1,3-oxazole]
